The target of this assay is T1, APC (303–739) (Homo sapiens, UniProt P25054).
T1 sequence (P25054 303-739): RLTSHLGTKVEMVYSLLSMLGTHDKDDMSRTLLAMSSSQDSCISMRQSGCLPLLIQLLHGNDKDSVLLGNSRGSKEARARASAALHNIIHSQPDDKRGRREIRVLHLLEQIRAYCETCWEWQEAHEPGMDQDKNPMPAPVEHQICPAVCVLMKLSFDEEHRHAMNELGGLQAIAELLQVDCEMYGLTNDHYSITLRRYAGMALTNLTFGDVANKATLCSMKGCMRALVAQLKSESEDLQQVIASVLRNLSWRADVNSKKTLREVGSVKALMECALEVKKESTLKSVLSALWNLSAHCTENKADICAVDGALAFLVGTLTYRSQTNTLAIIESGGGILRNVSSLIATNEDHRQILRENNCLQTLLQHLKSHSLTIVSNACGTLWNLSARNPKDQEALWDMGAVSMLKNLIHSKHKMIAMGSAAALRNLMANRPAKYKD
Briefly: FP competitive assay using tracer 7. It counts as binding. As to the method:
FITC-labeled tracer peptides were obtained from Changzhou Kanglong Biotech Ltd. (Changzhou, Jiangsu, China). […]. The FP signal changes upon tracer binding were measured after 1.5 h of incubation using a Synergy neo microplate reader (BioTek Instruments, Inc.) and plotted against the protein concentration. The corresponding EC50 values were generated by fitting the curves with a nonlinear regression model. […]. To make a working solution, APC (303–739) was diluted in FP buffer (50 mM HEPES, pH 7.5, 300 mM NaCl, 1 mM EDTA, 1 mM DTT). The diluted APC protein (91 μL) was combined with a serial dilution of peptides (4 μL) and incubated at room temperature for 1 h, followed by the addition of 5 μL of 400 nM tracer 7. The FP signals were measured after 1.5 h of incubation at room temperature using a Synergy neo microplate reader. Three controls were included on each plate, i.e., blank (without protein and tracer), 100% inhibition (free tracer only), and 0% inhibition (protein/tracer complex only) controls. All experiments were performed in triplicate. The IC50 values of peptides were calculated by nonlinear regression analysis using GraphPad Prism 7.0 software.

Setting [1] is: Supplementary Table 4, read-out: IC50, Tracer 7.
[2] abbreviates: Repeat 1, Table 3 source data, read-out: IC50(μM) Repeat 1.
Setting [3] is: Repeat 2, Table 3 source data, read-out: IC50(μM) Repeat 2.
[4] abbreviates: Repeat 3, Table 3 source data, read-out: IC50(μM) Repeat 3.
Setting [5] is: mean of 3 repeats, Table 3 source data, read-out: IC50(μM) mean.
[6] abbreviates: tracer 7, mean of three repeats, read-out: IC50 mean.
The mark [7] stands for this setting: tracer 7, read-out: IC50 Repeat 1.
Where [8] appears, read: tracer 7, read-out: IC50 Repeat 2.
[9] abbreviates: tracer 7, read-out: IC50 Repeat 3.

Where two headings read alike, the source gives them in different places. Where a SMILES comes first, the peptide text is derived from it. [ ]: non-standard residue; d: D form. The star is where a group is joined. Cyclohexanecarbonyl = O=C(C1CCCCC1)*; Cyclopentanecarbonyl = O=C(C1CCCC1)*; Benzoyl(4-OMe) = COc1ccc(C(=O)*)cc1; Benzoyl(4-Me) = Cc1ccc(C(=O)*)cc1; Ala(cPr) = N[C@@H](CC1CC1)C(=O)O; Oxazole2carbonyl = O=C(c1ncco1)*; Cha = N[C@@H](CC1CCCCC1)C(=O)O; Isonicotinoyl = O=C(c1ccncc1)*; hLeu = CC(C)CC[C@H](N)C(=O)O; Nicotinoyl = O=C(c1cccnc1)*; 2Furoyl = O=C(c1ccco1)*; Acryloyl = C=CC(=O)*; X3 = O=C(c1ccncn1)*; Mpa = O=C(O)CCS

The IC50 is the midpoint of a concentration-inhibition curve. For the compound `CC(C)C[C@H](NC(=O)[C@H](CO)NC(=O)[C@H](CCC(=O)O)NC(=O)CNC(=O)[C@H](C)NC(=O)c1ncco1)C(=O)N[C@@H](Cc1ccc(O)cc1)C(=O)N[C@@H](CCC(=O)O)C(N)=O` [MAI-455] (Oxazole2carbonyl-AGESLYE-NH2), the IC50 under setting [1] was 0.86 ± 0.03 µM.
As to `CC(C)C[C@H](NC(=O)[C@H](CO)NC(=O)[C@H](CCC(=O)O)NC(=O)CNC(=O)[C@H](C)NC(=O)c1ccncn1)C(=O)N[C@@H](Cc1ccc(O)cc1)C(=O)N[C@@H](CCC(=O)O)C(N)=O` [MAI-464] (X3-AGESLYE-NH2), the IC50 under setting [1] stood at 0.22 ± 0.01 µM.
For `C=CC(=O)N[C@@H](C)C(=O)NCC(=O)N[C@@H](CCC(=O)O)C(=O)N[C@@H](CO)C(=O)N[C@@H](CC(C)C)C(=O)N[C@@H](Cc1ccc(O)cc1)C(=O)N[C@@H](CCC(=O)O)C(N)=O` [MAI-501] (Acryloyl-AGESLYE-NH2), the IC50 by setting is: under setting [2], 29.9 µM; under setting [3], 19.1 µM; under setting [4], 22 µM; under setting [5], 23.7 µM.
Turning to `CC(C)C[C@H](NC(=O)[C@H](CO)NC(=O)[C@H](CCC(=O)O)NC(=O)CNC(=O)[C@H](C)NC(=O)CCS)C(=O)N[C@@H](Cc1ccc(O)cc1)C(=O)N[C@@H](CCC(=O)O)C(N)=O` [MAI-502] ([Mpa]AGESLYE-NH2), the IC50 amounted to 2.46 µM under setting [2], 1.52 µM under setting [3], 2.21 µM under setting [4] and 2.06 µM under setting [5].
In the case of `CC(C)C[C@H](NC(=O)[C@H](CO)NC(=O)[C@H](CCC(=O)O)NC(=O)CNC(=O)[C@H](C)NC(=O)C1CCCC1)C(=O)N[C@@H](Cc1ccc(O)cc1)C(=O)N[C@@H](CCC(=O)O)C(N)=O` [MAI-503] (Cyclopentanecarbonyl-AGESLYE-NH2), the IC50 by setting is: under setting [2], 7.09 µM; under setting [3], 5.22 µM; under setting [4], 5.07 µM; under setting [5], 5.79 µM.
For `CC(C)C[C@H](NC(=O)[C@H](CO)NC(=O)[C@H](CCC(=O)O)NC(=O)CNC(=O)[C@H](C)NC(=O)C1CCCCC1)C(=O)N[C@@H](Cc1ccc(O)cc1)C(=O)N[C@@H](CCC(=O)O)C(N)=O` [MAI-504] (Cyclohexanecarbonyl-AGESLYE-NH2), the IC50 is, setting by setting: under setting [2], 2.24 µM; under setting [3], 1.66 µM; under setting [4], 1.59 µM; under setting [5], 1.83 µM.
Turning to `CC(C)C[C@H](NC(=O)[C@H](CO)NC(=O)[C@H](CCC(=O)O)NC(=O)CNC(=O)[C@H](C)NC(=O)c1ccco1)C(=O)N[C@@H](Cc1ccc(O)cc1)C(=O)N[C@@H](CCC(=O)O)C(N)=O` [MAI-506] (2Furoyl-AGESLYE-NH2), the IC50 under setting [2] was 0.323 µM, the IC50 under setting [3] was determined as 0.419 µM, the IC50 under setting [4] came to 0.457 µM and the IC50 under setting [5] was determined as 0.4 µM.
Regarding `CC(C)C[C@H](NC(=O)[C@H](CO)NC(=O)[C@H](CCC(=O)O)NC(=O)CNC(=O)[C@H](C)NC(=O)c1cccnc1)C(=O)N[C@@H](Cc1ccc(O)cc1)C(=O)N[C@@H](CCC(=O)O)C(N)=O` [MAI-513] (Nicotinoyl-AGESLYE-NH2), the IC50 reads like this: under setting [2], 0.234 µM; under setting [3], 0.331 µM; under setting [4], 0.318 µM; under setting [5], 0.294 µM.
Turning to `CC(C)C[C@H](NC(=O)[C@H](CO)NC(=O)[C@H](CCC(=O)O)NC(=O)CNC(=O)[C@H](C)NC(=O)c1ccncc1)C(=O)N[C@@H](Cc1ccc(O)cc1)C(=O)N[C@@H](CCC(=O)O)C(N)=O` [MAI-514] (Isonicotinoyl-AGESLYE-NH2), the half-maximal inhibitory concentration (IC50) under setting [2] came to 0.116 µM, the IC50 under setting [3] worked out at 0.128 µM, the IC50 under setting [4] was determined as 0.0999 µM and the IC50 under setting [5] was 0.114 µM.
`Cc1ccc(C(=O)N[C@@H](C)C(=O)NCC(=O)N[C@@H](CCC(=O)O)C(=O)N[C@@H](CO)C(=O)N[C@@H](CC(C)C)C(=O)N[C@@H](Cc2ccc(O)cc2)C(=O)N[C@@H](CCC(=O)O)C(N)=O)cc1` [MAI-515] ({Benzoyl(4-Me)}-AGESLYE-NH2): the IC50 reads like this: under setting [2], 0.261 µM; under setting [3], 0.204 µM; under setting [4], 0.254 µM; under setting [5], 0.239 µM.
Consider `COc1ccc(C(=O)N[C@@H](C)C(=O)NCC(=O)N[C@@H](CCC(=O)O)C(=O)N[C@@H](CO)C(=O)N[C@@H](CCC(C)C)C(=O)N[C@@H](Cc2ccc(O)cc2)C(=O)N[C@@H](CCC(=O)O)C(N)=O)cc1` [MAI-517] ({Benzoyl(4-OMe)}-AGES[hLeu]YE-NH2), for which the half-inhibitory concentration (IC50) under setting [6] stood at 0.0247 µM, the concentration for half-maximal inhibition (IC50) under setting [7] is 0.0255 µM, the IC50 under setting [8] was determined as 0.0285 µM and the IC50 under setting [9] stood at 0.0202 µM.
With `COc1ccc(C(=O)N[C@@H](C)C(=O)NCC(=O)N[C@@H](CCC(=O)O)C(=O)N[C@@H](CO)C(=O)N[C@@H](CC2CC2)C(=O)N[C@@H](Cc2ccc(O)cc2)C(=O)N[C@@H](CCC(=O)O)C(N)=O)cc1` [MAI-518] ({Benzoyl(4-OMe)}-AGES[Ala(cPr)]YE-NH2), the IC50 by setting is: under setting [6], 0.0449 µM; under setting [7], 0.0454 µM; under setting [8], 0.047 µM; under setting [9], 0.0424 µM.
For `COc1ccc(C(=O)N[C@@H](C)C(=O)NCC(=O)N[C@@H](CCC(=O)O)C(=O)N[C@@H](CO)C(=O)N[C@@H](CC2CCCCC2)C(=O)N[C@@H](Cc2ccc(O)cc2)C(=O)N[C@@H](CCC(=O)O)C(N)=O)cc1` [MAI-520] ({Benzoyl(4-OMe)}-AGES[Cha]YE-NH2), the IC50 is 0.0509 µM under setting [6], 0.0544 µM under setting [7], 0.0551 µM under setting [8] and 0.0432 µM under setting [9].

(Values after article PMC9402538, “Rational design of a sensitivity-enhanced tracer for discovering efficient APC–Asef inhibitors” (Nature Communications, 2022).)
